# Results from patent US10052293B2, “Curcumin infused milk beverage and a process for the preparation thereof” (priority 2016, dated 2018).
# What was measured:
# [1] = pH of Curcumin dissolved in water; assay type: physicochemical
# Experimental: The prior art as described in above paragraphs clearly points that Curcumin is unstable in an alkaline solution and loses its golden yellow colour above a pH of 7.5. When pure Curcumin (95%) is dissolved in water, it gives a pH of 6.1. Even at a concentration of 30% solution of Curcumin, prepared by 30 gms of Curcumin in 70 gm hot water, kept in water bath at 55 degrees Celsius for 10 minutes and cooled to 25 degrees Celsius, it has an acidic pH. This Acidic pH of Curcumin is not suitable for making flavoured milk products. Any ingredient having pH less than 6.4 adversely affect milk proteins. The present invention solves this problem by optimizing the exact pH of Curcumin infused milk beverage so that the properties of beverage are preserved and good dispersibility and stability of Curcumin is obtained in the final composition.
# [2] = Water solubility of Curcumin; assay type: physicochemical; conditions: 95% pure Curcumin
# Experimental: The particle size of the Curcumin is about 125 micrometers and 95% of Curcumin can pass through 125 micrometers sieve and rest 5% is larger than 125 micrometers. In the final product, the Curcumin concentration is kept at a low concentration of 0.05% (wt/wt percentage for a batch). The concentration of Curcumin can go up to 0.15%. (wt/wt percentage for a batch) for particular milk beverage products. Thus, in an exemplary situation a 160 ml package of this milk beverage has approximately 80 mg of Curcumin and which can go up to 240 mg as required for ingestion.
smiles,measurement,setting,value
"COc1cc(/C=C/C(=O)CC(=O)/C=C/c2ccc(O)c(OC)c2)ccc1O [Curcumin, diferuloylmethane]",pH,"[1]; 30% solution: 30 gms Curcumin in 70 gm hot water, 55 degrees Celsius 10 minutes, cooled to 25 degrees Celsius",acidic pH
same,pH,[1]; pure Curcumin (95%) dissolved in water,6.1
same,water solubility,[2],water insoluble
